# Results as given in patent publication US12286632B2, “Rationally-designed synthetic peptide shuttle agents for delivering polypeptide cargos from an extracellular space to the cytosol and/or nucleus of a target eukaryotic cell, uses thereof, methods and kits relating to same” (Feldan Bio Inc., priority 2016, dated 2025).
# How the values were obtained:
# [1] = system: CHO cells; experiment: GFP-NLS transduction in different adherent and suspension cells (flow cytometry, Pos cells % and viability %); type: cell-based, Chinese hamster; conditions: Protocol B, 35 μM shuttle, 5 μM GFP-NLS, 10 seconds
# Protocol: (§1) The media in wells was removed, cells were washed once with PBS previously warmed at 37° C., and the shuttle agent/cargo mixture was then added to cover all cells for the desired length of time. The shuttle agent/cargo mixture in wells was removed, the cells were washed once with PBS, and fresh complete medium was added. Before analysis, the cells were washed once with PBS and fresh complete medium was added.
# (§2) The ability of the shuttle agent His-CM18-PTD4 to deliver GFP-NLS to the nuclei of different adherent and suspension cells using Protocols B (adherent cells) or C (suspension cells) as described in Example 9.1 was examined. The cell lines tested included: HeLa, Balb3T3, HEK 293T, CHO, NIH3T3, Myoblasts, Jurkat, THP-1, CA46, and HT2 cells, which were cultured as described in Example 1. GFP-NLS (5 μM; see Example 5.1) was co-incubated with 35 μM of His-CM18-PTD4 and exposed to adherent cells for 10 seconds (Protocol B), or was co-incubated with 5 μM of His-CM18-PTD4 and exposed to suspension cells for 15 seconds (Protocol C). […] “Pos cells (%)” is the mean percentages of all cells that emanate a GFP signal.
# [2] = system: HeLa cells; experiment: FITC-labeled anti-tubulin antibody transduction assay (flow cytometry, cell viability, microscopy); conditions: antibody 0.5 μM; shuttle 50 μM; 10 seconds, Protocol B
# Protocol: The delivery and microscopy protocols are described in Example 3.
# HeLa cells were cultured and tested in the protein transduction assay described in Example 3.1. […] The cells were subjected to flow cytometry analysis as described in Example 3.3.
# [3] = system: Balb3T3 cells; experiment: GFP-NLS transduction in different adherent and suspension cells (flow cytometry, Pos cells % and viability %); type: cell-based; conditions: Protocol B, 35 μM shuttle, 5 μM GFP-NLS, 10 seconds
# Protocol: as §1, §2
# [4] = system: NIH3T3 cells; experiment: as above; type: cell-based; conditions: Protocol B, 35 μM shuttle, 5 μM GFP-NLS, 10 seconds
# Protocol: as §1, §2
# [5] = system: Jurkat cells; experiment: as above; type: cell-based, Human; conditions: Protocol C, 5 μM shuttle, 5 μM GFP-NLS, 15 seconds
# Protocol: as §2
# [6] = system: HEK 293T cells; experiment: as above; type: cell-based, Human; conditions: Protocol B, 35 μM shuttle, 5 μM GFP-NLS, 10 seconds
# Protocol: as §1, §2
# [7] = system: Myoblasts; experiment: as above; type: cell-based, Human; conditions: Protocol B, 35 μM shuttle, 5 μM GFP-NLS, 10 seconds
# Protocol: as §1, §2
# [8] = system: PPIB gene; experiment: T7E1 DNA cleavage assay after CRISPR/Cas9-NLS delivery, HeLa cells; type: cell-based, Human; conditions: shuttle 10 μM; Cas9-NLS 25 nM; HeLa cells 16 h, medium without serum
# Excerpt: The T7 endonuclease I (T7E1) can be used to detect on-target CRISPR/Cas genome editing events in cultured cells. As an overview, genomic DNA from target cells is amplified by PCR. The PCR products are then denatured and reannealed to allow heteroduplex formation between wild-type DNA and CRISPR/Cas-mutated DNA. T7E1, which recognizes and cleaves mismatched DNA, is used to digest the heteroduplexes. The resulting cleaved and full-length PCR products are visualized by gel electrophoresis.
# The T7E1 assay was performed with the Edit-R™ Synthetic crRNA Positive Controls (Dharmacon #U-007000-05) and the T7 Endonuclease I (NEB, Cat #M0302S). After the delivery of the CRISPR/Cas complex, cells were lysed in 100 μL of Phusion™ High-Fidelity DNA polymerase (NEB #M0530S) laboratory with additives. The cells were incubated for 15-30 minutes at 56° C., followed by deactivation for 5 minutes at 96° C. The plate was briefly centrifuged to collect the liquid at bottom of the wells. 50-μL PCR samples were set up for each sample to be analyzed. The PCR samples were heated to 95° C. for 10 minutes and then slowly (>15 minutes) cooled to room temperature. PCR product (-5 μL) was then separated on an agarose gel (2%) to confirm amplification. 15 μL of each reaction was incubated with T7E1 nuclease for 25 minutes at 37° C. […]
# [9] = system: HT2 cells; experiment: GFP-NLS transduction in different adherent and suspension cells (flow cytometry, Pos cells % and viability %); type: cell-based; conditions: Protocol C, 5 μM shuttle, 5 μM GFP-NLS, 15 seconds
# Protocol: as §2
smiles,measurement,setting,value
CC[C@H](C)[C@H](NC(=O)[C@H](CCCCN)NC(=O)[C@H](CCCCN)NC(=O)[C@H](Cc1ccccc1)NC(=O)[C@H](CC(C)C)NC(=O)[C@H](CCCCN)NC(=O)[C@H](Cc1c[nH]c2ccccc12)NC(=O)[C@H](CCCCN)NC(=O)[C@H](Cc1c[nH]cn1)NC(=O)[C@H](Cc1c[nH]cn1)NC(=O)[C@H](Cc1c[nH]cn1)NC(=O)[C@H](Cc1c[nH]cn1)NC(=O)[C@H](Cc1c[nH]cn1)NC(=O)[C@@H](N)Cc1c[nH]cn1)C(=O)NCC(=O)N[C@@H](C)C(=O)N[C@H](C(=O)N[C@@H](CC(C)C)C(=O)N[C@@H](CCCCN)C(=O)N[C@H](C(=O)N[C@@H](CC(C)C)C(=O)N[C@H](C(=O)N[C@H](C(=O)NCC(=O)N[C@@H](Cc1ccc(O)cc1)C(=O)N[C@@H](C)C(=O)N[C@@H](CCCNC(=N)N)C(=O)N[C@@H](C)C(=O)N[C@@H](C)C(=O)N[C@@H](C)C(=O)N[C@@H](CCCNC(=N)N)C(=O)N[C@@H](CCC(N)=O)C(=O)N[C@@H](C)C(=O)N[C@@H](CCCNC(=N)N)C(=O)N[C@@H](C)C(=O)O)[C@@H](C)O)[C@@H](C)O)C(C)C)C(C)C [His-CM18-PTD4],Cell viability (%) (±St. Dev.; n = 3),[1],92.8 ± 0.1%
same,Mean % cells with GFP signal (±St. Dev.; n = 3),[1],53.7 ± 4.6%
same,"antibody delivery (microscopy, in words)",[2],successfully transduced and delivered to the nucleus and/or the cytosol
same,Cell viability (%) (±St. Dev.; n = 3),[3],98.4 ± 0.6%
same,Mean % cells with GFP signal (±St. Dev.; n = 3),[3],40.2 ± 3.1%
same,Cell viability (%) (±St. Dev.; n = 3),[4],3.3 ± 5.4%
same,Mean % cells with GFP signal (±St. Dev.; n = 3),[4],35.4 ± 3.9%
same,Cell viability (%) (±St. Dev.; n = 3),[5],73.6 ± 0.7%
same,Mean % cells with GFP signal (±St. Dev.; n = 3),[5],30.7 ± 2.2%
same,Cell viability (%) (±St. Dev.; n = 3),[6],95.3 ± 1.2%
same,Mean % cells with GFP signal (±St. Dev.; n = 3),[6],55.3 ± 0.2%
same,Cell viability (%) (±St. Dev.; n = 3),[7],23.5 ± 1.1%
same,Mean % cells with GFP signal (±St. Dev.; n = 3),[7],25.6 ± 2.6%
same,"delivery of functional CRISPR/Cas9 complex, cleavage of genomic PPIB (in words)",[8],successfully deliver a functional CRISPR/Cas9 complex to the nucleus of HeLa cells
same,Cell viability (%) (±St. Dev.; n = 3),[9],90.6 ± 1.5%
same,Mean % cells with GFP signal (±St. Dev.; n = 3),[9],30.5 ± 2.5%
